This is an account of results in article PMC9863657, “A Tailored Strategy to Crosslink the Aspartate Transcarbamoylase Domain of the Multienzymatic Protein CAD” (Molecules, 2023).

Assay [1] addresses ATC domain of C. thermophilum CAD-like protein with mutations N2045C and R2238C (ctATC2Cys) (Chaetomium thermophilum). The assay can be described thus: SEC; Superdex 200 10/300 GL in 20 mM Tris-HCl pH 8.0, 150 mM NaCl, room temperature; molecular weight estimated from calibration with standards.
Assay [2] shares this target. The assay can be described thus: crystal structure; crystals of ctATC2Cys free and with 2 mM carbamoyl phosphate (CP), space group P4(3)32, one subunit per asymmetric unit.
Assay [3] has as its target full-length C. thermophilum CAD-like protein (Chaetomium thermophilum). The assay can be described thus: not stated; unpublished results: recombinant full-length protein isolated as hexameric particles.
For assay [4], the target named is T1, ctATC (ATC domain of C. thermophilum CAD-like protein) (Thermochaetoides thermophila, UniProt G0S583).
T1 construct: gene CTHT_0032600; isolated ATC domain aa 1939-2253; N-terminal His6-MBP cut with PreScission; E. coli BL21(DE3) pLysS; homotrimer, 119 kDa by SEC (ctATC2Cys, similar to WT)
Kind of assay: differential scanning fluorimetry. Format: binding. The conditions noted are these: 1 mM PALA; 5 µM protein; pH 7.0; Tm without PALA 53.9 °C; transition state analog. In general terms: DSF heats the sample and reads unfolding from a dye or from intrinsic fluorescence.

In assay [5] the target is T2, ctATC (ATC domain of C. thermophilum CAD-like protein) (Thermochaetoides thermophila, UniProt G0S583, N2045C/R2238C).
T2 construct: gene CTHT_0032600; isolated ATC domain aa 1939-2253; N-terminal His6-MBP cut with PreScission; E. coli BL21(DE3) pLysS; homotrimer, 119 kDa by SEC (ctATC2Cys, similar to WT)
The assay can be described thus: differential scanning fluorimetry. The conditions noted are these: 1 mM PALA; 5 µM protein; pH 7.0; disulfide-crosslinked trimer; Tm without PALA 73.5 °C; transition state analog. The assay is classed as binding.

The target of assay [6] is T2, ctATC (ATC domain of C. thermophilum CAD-like protein). The assay can be described thus: colorimetric carbamoyl aspartate assay. Format: biochemical. The conditions noted are these: 5 mM CP; 50 mM Tris-acetate pH 8.3; 25 °C; 0.1 µM enzyme; substrate inhibition model; range printed jointly for WT and double mutant; disulfide-crosslinked trimer; read-out: S0.5^Asp.
Assay [7] has as its target T1, ctATC (ATC domain of C. thermophilum CAD-like protein). Kind of assay: colorimetric carbamoyl aspartate assay. The assay is classed as biochemical. The following applies: 5 mM CP; 50 mM Tris-acetate pH 8.3; 25 °C; 0.1 µM enzyme; substrate inhibition model; range printed jointly for WT and double mutant; read-out: S0.5^Asp.

T1 sequence (G0S583 entry or part of it): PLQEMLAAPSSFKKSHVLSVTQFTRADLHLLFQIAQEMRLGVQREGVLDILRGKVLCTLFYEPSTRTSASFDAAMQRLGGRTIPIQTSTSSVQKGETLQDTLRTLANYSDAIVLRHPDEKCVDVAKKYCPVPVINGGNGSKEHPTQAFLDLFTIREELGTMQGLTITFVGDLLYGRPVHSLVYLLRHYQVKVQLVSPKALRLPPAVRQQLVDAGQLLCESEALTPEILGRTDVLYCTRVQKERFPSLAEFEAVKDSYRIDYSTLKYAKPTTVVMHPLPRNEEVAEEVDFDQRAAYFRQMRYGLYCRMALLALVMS
T2 sequence (G0S583 entry or part of it N2045C/R2238C): as the sequence (G0S583 entry or part of it) above, with N107C, R300C counted along it

For the compound “ATC domain of C. thermophilum CAD-like protein with mutations N2045C and R2238C (ctATC2Cys) (domain or fragment)”, the stoichiometry N in assay [1] and in assay [2] was 3 in each case. On to “full-length C. thermophilum CAD-like protein (natural protein)”, for which, in assay [3], the stoichiometry N (in general, the number of molecules, sites or subunits per partner or assembly) came to 6. Take `O=C(O)C[C@H](NC(=O)CP(=O)(O)O)C(=O)O` [PALA]: the Tm in assay [4] and in assay [5] was ~ 90 °C throughout. Turning to `N[C@@H](CC(=O)O)C(=O)O` [Asp, aspartate], the Km in assay [6] and in assay [7] was 1.5 to 2 mM each time.
